Converted amounts (≈) assume the structure as drawn. The source made the active and inactive calls. The calls are words filed in the database; no cut-off is given here.
Assays:
Staphylococcus aureus [1] = test: Induction of cytoplasmic membrane depolarization in methicillin-resistant Staphylococcus aureus MRSA252 by DiSC3(5) staining based analysis; type: functional, organism-based
Acinetobacter baumannii [2] = test: Antibacterial activity against Carbapenem-resistant Acinetobacter baumannii clinical isolate incubated for 16 to 24 hrs by CLSI based broth microdilution method; type: functional; conditions: time 16-24 hrs
Staphylococcus aureus [3] = test: Antibacterial activity against Staphylococcus aureus Mu50 at 1:1 ratio of compound and FPP at […] incubated for 16 to 24 hrs by absorbance based assay; type: functional, organism-based; conditions: dose 128.0 µg/ml, time 16-24 hrs
Escherichia coli [4] = test: Induction of cytoplasmic membrane permeabilization in Escherichia coli AB1157 at 16 ug/ml measured for 40 mins by PI/NPN staining based assay; type: functional, organism-based; conditions: dose 16.0 µg/ml
Staphylococcus aureus [5] = test: Inhibition of peptidoglycan biosynthesis in Staphylococcus aureus MRSA252 assessed as increase in accumulation of Park's nucleotide at 0.5 ug/ml incubated for 2 hrs by RP-HPLC analysis; type: functional, organism-based; conditions: dose 0.5 µg/ml
Escherichia coli [6] = test: Bactericidal activity against Escherichia coli AB1157 assessed as reduction in bacterial count measured after 24 hrs by time kill assay; type: functional, organism-based
Peptidoglycan [7] = test: Potency index, ratio of vancomycin Ka to test compound Ka for Ac-Lys(D-isoAsp)-D-Ala-D-Ala lipid II model peptide moiety
Staphylococcus aureus [8] = test: Antibacterial activity against methicillin-susceptible Staphylococcus aureus incubated for 16 to 24 hrs by CLSI based broth microdilution method; type: functional; conditions: time 16-24 hrs
Peptidoglycan [9] = test: Binding affinity to Ac-Lys(Ac)-D-Ala-D-Ala lipid II model peptide moiety assessed as association constant by ITC analysis
Staphylococcus aureus [10] = test: Post-antibiotic effect in Staphylococcus aureus MRSA252 at 10 times measured after 7 hrs; type: functional, organism-based
Peptidoglycan [11] = test: Potency index, ratio of vancomycin Ka to test compound Ka for Ac-Lys(D-isoAsp)-D-Ala-D-Ala lipid II model peptide moiety assessed as association constant by ITC analysis
Acinetobacter baumannii [12] = test: Potency index, ratio of Vancomycin MIC to test compound MIC for Carbapenem-resistant Acinetobacter baumannii clinical isolate incubated for 16 to 24 hrs by CLSI based broth microdilution method; type: functional; conditions: time 16-24 hrs
Escherichia coli [13] = test: Potency index, ratio of Vancomycin MIC to test compound MIC for Escherichia coli […] incubated for 16 to 24 hrs by CLSI based broth microdilution method; type: functional; conditions: time 16-24 hrs
Peptidoglycan [14] = test: Binding affinity to Ac-Lys(D-isoAsp)-D-Ala-D-Ala lipid II model peptide moiety assessed as association constant by ITC analysis
Enterococcus faecium = test: Antibacterial activity against vancomycin-resistant Enterococcus faecium harboring VanM phenotype incubated for 16 to 24 hrs by CLSI based broth microdilution method; type: functional; conditions: time 16-24 hrs
Peptidoglycan [15] = test: Binding affinity to Ac-Lys(D-isoAsp)-D-Ala-D-Ala lipid II model peptide moiety assessed as change in Gibb's free energy by ITC analysis
Staphylococcus aureus [16] = test: Antibacterial activity against Staphylococcus aureus Mu50 at 1:1 ratio of compound and phosphatidylglycerol at […] incubated for 16 to 24 hrs by absorbance based assay; type: functional, organism-based; conditions: dose 128.0 µg/ml, time 16-24 hrs
Staphylococcus aureus [17] = test: Bacteriostatic activity against methicillin-resistant Staphylococcus aureus MRSA252 at MIC measured after 24 hrs by time kill assay; type: functional, organism-based
Staphylococcus aureus [18] = test: Antibacterial activity against Staphylococcus aureus Mu50 assessed as fold decrease in MIC at 1:1 ratio of compound and Ac2KAA at […] incubated for 16 to 24 hrs by absorbance based assay relative to control; type: functional; conditions: dose 128 µg/ml; time 16-24 hrs
[19] = test system: Staphylococcus haemolyticus; test: Antibacterial activity against methicillin-resistant Staphylococcus haemolyticus clinical isolate incubated for 16 to 24 hrs by CLSI based broth microdilution method; type: functional; conditions: time 16-24 hrs
Peptidoglycan [20] = test: Binding affinity to Ac-Lys(Ac)-D-Ala-D-Ala lipid II model peptide moiety assessed as change in Gibb's free energy by ITC analysis
Pseudomonas aeruginosa = test: Antibacterial activity against Pseudomonas aeruginosa PAO1 incubated for 16 to 24 hrs by CLSI based broth microdilution method; type: functional; conditions: time 16-24 hrs
[21] = Clearance in CD-1 mouse at 10 mg/kg, iv measured for 24 hrs by UPLC analysis; type: ADME, organism-based; conditions: in vivo
[22] = Hemolytic activity in rat RBC upto 100 ug/ml incubated for 1 hr by absorbance based assay; type: toxicity, cell-based; conditions: erythrocyte, dose < 100 µg/ml
Escherichia coli [23] = test: Inhibition of peptidoglycan biosynthesis in Escherichia coli AB1157 assessed as increase in accumulation of Park's nucleotide at 16 ug/ml incubated for 2 hrs by RP-HPLC analysis; type: functional, organism-based; conditions: dose 16.0 µg/ml
Staphylococcus aureus [24] = test: Induction of membrane disruption in Staphylococcus aureus MRSA252 assessed as leakage of protoplasm content at 1 to 8 ug/ml incubated for 4 to 24 hrs by TEM analysis; type: functional, organism-based; conditions: dose 1-8 µg/ml, time 4-24 hrs

Q: Which Activity (Staphylococcus aureus [1]) does the source give for CC(C)C[C@@H](N)C(=O)N[C@H]1C(=O)N[C@@H](CC(N)=O)C(=O)N[C@H]2C(=O)N[C@H]3C(=O)N[C@H](C(=O)N[C@H](C(=O)NCc4ccc(-c5ccc(CNC(=N)N)cc5)cc4)c4cc(O)cc(O)c4-c4cc3ccc4O)[C@H](O)c3ccc(c(Cl)c3)Oc3cc2cc(c3O[C@@H]2O[C@H](CO)[C@@H](O)[C@H](O)[C@H]2O[C@H]2C[C@](C)(N)[C@H](O)[C@H](C)O2)Oc2ccc(cc2Cl)[C@H]1O here?
A: inactive

Q: And the MIC (Acinetobacter baumannii [2])?
A: 64 µg/mL (≈ 38.3 µM)

Q: What about the Activity (Staphylococcus aureus [3]) of the same compound?
A: Active

Q: And the Activity (Escherichia coli [4])?
A: Active

Q: What about the Activity (Staphylococcus aureus [5]) of the same compound?
A: Active

Q: What about the Activity (Escherichia coli [6]) of the same compound?
A: Dose-Dependent Effect

Q: What about the Ratio (Peptidoglycan [7]) of the same compound?
A: 2.7

Q: What about the MIC (Staphylococcus aureus [8]) of the same compound?
A: ≤ 0.063 µg/mL

Q: What about the Ka (Peptidoglycan [9]) of the same compound?
A: 1.32e+06 M⁻¹

Q: And the Activity (Staphylococcus aureus [10])?
A: Active

Q: What about the Ratio (Peptidoglycan [11]) of the same compound?
A: 17.3

Q: And the Ratio (Acinetobacter baumannii [12])?
A: 2

Q: What about the Ratio (Escherichia coli [13]) of the same compound?
A: 2

Q: And the Ka (Peptidoglycan [14])?
A: 687000 M⁻¹

Q: What about the MIC (Enterococcus faecium) of the same compound?
A: 4 µg/mL (≈ 2.39 µM)

Q: What about the deltaG (Peptidoglycan [15]) of the same compound?
A: -7.96 kcal/mol

Q: And the Activity (Staphylococcus aureus [16])?
A: Active

Q: What about the Activity (Staphylococcus aureus [17]) of the same compound?
A: Active

Q: And the “fold change (FC)” value (Staphylococcus aureus [18])?
A: 2

Q: What about the MIC [19] of the same compound?
A: ≤ 0.03 µg/mL

Q: What about the deltaG (Peptidoglycan [20]) of the same compound?
A: -8.35 kcal/mol

Q: What about the MIC (Pseudomonas aeruginosa) of the same compound?
A: > 128 µg/mL

Q: What about the clearance [21] of the same compound?
A: 4.2 mL/min/kg

Q: What about the Activity [22] of the same compound?
A: Non-Toxic

Q: What about the Activity (Escherichia coli [23]) of the same compound?
A: Active

Q: And the Activity (Staphylococcus aureus [24])?
A: Active

From ChEMBL document CHEMBL6127119 (J Med Chem, 2024)
